Patent publication US20060003348A1, “Omi PDZ modulators” (GENENTECH. INC., priority 2004, published 2006)
Like-named read-outs stand apart in the source and are kept apart here. Where a SMILES comes first, the peptide text is derived from it. Where no end group is shown, it is not given here.

Target: T1, Omi PDZ (GST-Omi PDZ fusion protein) (Homo sapiens, UniProt O43464)
T1 construct: DNA fragment encoding hOmi PDZ domain was cloned into BamHI/XhoI sites of pGEX6P-3 plasmid, creating a GST-hOmiPDZ fusion protein; made in house; host or cells: E. coli BL21(DE3), plasmid pGEX6P-3
T1 sequence (O43464 359-458): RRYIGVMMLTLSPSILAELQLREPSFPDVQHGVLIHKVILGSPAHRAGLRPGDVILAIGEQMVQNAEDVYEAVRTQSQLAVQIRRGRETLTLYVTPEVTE
Experiment: Competition ELISA affinity assay: peptide blocks GST-Omi PDZ binding to immobilized biotinylated peptide
Settings: for IC50 / IC50 (μM): competition ELISA; for fold lower affinity (IC50 increase) relative to SWTMFWV (hOmi_c1): compared with peptide SWTMFWV (hOmi_c1)
Procedure: Affinity Assays—The binding affinities of peptides for Omi PDZ were determined as IC50 values using a previously described competition ELISA (18). […] Assay plates were prepared by immobilizing an amino-terminally biotinylated peptide (biotin-GWTMFWV) on maxisorp plates coated with NeuTravidin and blocked with BSA. A fixed concentration of GST-Omi PDZ fusion protein (20 nM) in PBS, 0.5% BSA, 0.1% Tween 20 (PBT buffer) was preincubated for 1 h with serial dilutions of peptide and then transferred to the assay plates. After 1 h incubation, the plates were washed with PBS, 0.05% Tween 20, incubated for 30 min with HRP/anti-GST antibody (1:10,000) in PBT buffer, washed again, and detected with 3,3′,5,5′-Tetramethyl-benzidine/H2O2 (TMB) peroxidase substrate.
The binding affinity of this ligand to Omi PDZ was measured with ELISA competition assay. […] PDZ-opt is an optimized peptide ligand of Omi PDZ derived from a chemically synthesized peptide library (11) with totally different sequence motif from that of the ligands derived from phage libraries. […] Peptides from libC and peptides Mxi2 and PDZ-opt were synthesized with acetylated N termini and free C termini, unless indicated otherwise. Peptides from libN were synthesized with free N termini and amidation at C termini.

[1] = 20 nM GST-Omi PDZ, immobilized biotinylated high affinity peptide, mean
[2] = 20 nM GST-Omi PDZ, immobilized biotinylated high affinity peptide, mean, read-out: IC50
[3] = IC50 (μM), 20 nM GST-Omi PDZ, immobilized biotinylated high affinity peptide, mean

Ac-SWTMFAV [hOmi_c1_A2, S W T M F A V]
IC50 (unit printed in the cell (mM), read-out: IC50): > 1 mM

NC(=O)[C@H](Cc1c[nH]c2ccccc12)NC(=O)[C@H](Cc1c[nH]c2ccccc12)NC(=O)[C@H](Cc1c[nH]cn1)NC(=O)[C@@H](N)CO [hOmi_n1_t5, S H W W] (H-SHWW-NH2)
fold lower affinity relative to SHWWGGWLG (hOmi_n1) (truncation series of SHWWGGWLG, C terminus amidated): 3 fold

SHWWGG [hOmi_n1_t3, S H W W G G]
IC50 (μM) [1]: NDI

CC(=O)N[C@@H](Cc1ccccc1)C(=O)N[C@@H](Cc1c[nH]c2ccccc12)C(=O)N[C@H](C(=O)O)C(C)C [hOmi_c1_t4, F W V] (Ac-Phe-Trp-Val-OH)
fold lower affinity (IC50 increase) relative to SWTMFWV (hOmi_c1): > 30 fold
IC50 [2]: 0.118 ± 0.0321 mM

SHAWGGWL [hOmi_n1_A3, S H A W G G W L]
IC50 (μM) [1]: NDI

S H W W G (SHWWG) [hOmi_n1_t4]
IC50 (μM) [1]: NDI

WGGWLG [hOmi_n1_t8, W G G W L G]
IC50 (μM) [1]: NDI

NC(=O)[C@H](Cc1c[nH]c2ccccc12)NC(=O)[C@H](Cc1c[nH]c2ccccc12)NC(=O)[C@@H](N)Cc1c[nH]cn1 [hOmi_n1_t9, H W W] (H-His-Trp-Trp-NH2)
IC50 [2]: 0.108 ± 0.0322 mM
effect on binding to Omi PDZ, in words (SHWWGGWLG series) (truncations of SHWWGGWLG (libN), C terminus amidated): comparable affinity as tetrapeptide SHWW

Ac-GQYYFV-OH [PDZ-Opt, G Q Y Y F V, reference compound]
fold lower affinity (IC50 increase) relative to SWTMFWV (hOmi_c1): 5 fold
IC50 [2]: 0.0176 ± 0.0056 mM

H-SHWWGGWL-NH2 [hOmi_n1_t1, S H W W G G W L]
IC50 [2]: 0.0176 ± 0.0039 mM

SHWAGGWL [hOmi_n1_A2, S H W A G G W L]
IC50 (μM) [1]: NDI

Ac-RFPHFWV-OH [hOmi_c2, R F P H F W V]
fold lower affinity (IC50 increase) relative to SWTMFWV (hOmi_c1): 50 fold

WWGGWLG [hOmi_n1_t7, W W G G W L G]
IC50 (μM) [1]: NDI

Ac-MDIELVMI [Mxi2, M D I E L V M I, reference compound]
IC50 [3]: > 0.5 mM

SWTMFWV [hOmi_c3, S W T M F W V-CONH2]
IC50 (μM) [1]: NDI

Ac-SWTMFWV [hOmi_c1, S W T M F W V]
IC50 [3]: 0.0033 mM
